Laboratory results: paper PMC8967206, “Pyrimidine-5-carbonitrile based potential anticancer agents as apoptosis inducers through PI3K/AKT axis inhibition in leukaemia K562” (Journal of Enzyme Inhibition and Medicinal Chemistry, 2022)
Where two headings read alike, the source gives them in different places.

Experiments:
[1] = system: leukaemia (K562) cell line; experiment: MTT colorimetric cytotoxicity assay, K562; assay type: cell-based; conditions: Homo sapiens, 48 h incubation, mean ± SD of three experiments
Procedure: (§2) Cytotoxicity of our sixteen innovative compounds 4(a–e), 5(a–d), 6, and 7(a–f) together with control was assessed by means of in-vitro toxicology assay kit, MTT based (Sigma Aldrich, St. Louis, MO) against MCF-7 and K562 cell lines incubated in 96 microwell plates and proceeded as reported[32]^,[33]. MTT (3-[4,5-dimethylthiazol-2-yl]-2,5-diphenyl tetrazolium bromide) method measures the activity of living cells through mitochondrial dehydrogenase. Mitochondrial dehydrogenases of viable cells cleave the tetrazolium ring, giving purple formazan crystals that are dissolved in acidified isopropanol and the resulting purple solution is measured spectrophotometrically. The change in cell number is proportional to the intensity of purple colour produced and the degree of cytotoxicity caused by the test compounds. The absorbance at a wavelength of 570 nm was measured using (ROBONIK P2000 spectrophotometer) and the background absorbance of multi-well plates at 690 nm then the absorbance at 690 nm was subtracted from the 570 nm measurement. Five concentrations from each test compound ranging from (0.04 to 100 µM) were prepared and the experiments were done in triplicate.

[2] = system: breast cancer (MCF-7) cell line; experiment: MTT colorimetric cytotoxicity assay, MCF-7; assay type: cell-based; conditions: Homo sapiens, MCF7, 48 h incubation, mean ± SD of three experiments
Procedure: as §2

[3] = system: NFkb; experiment: Western blot, NFkb expression in K562; assay type: cell-based; conditions: K562, 48 h; control 0.719
Procedure: (§1) K562 cells were treated with the most promising compound (7f), for 48 h. Protein from control and treated cells was harvested and the concentration was measured via Bradford protein assay (Bio-Rad, Hercules, CA). The samples were loaded and separated by sodium dodecyl sulphate (SDS)-polyacrylamide gel electrophoresis and then transferred onto a polyvinylidene difluoride (PVDF) membrane. Western blot analysis was performed according to previously described.

[4] = system: p-AKT; experiment: Western blot, p-AKT expression in K562; assay type: cell-based; conditions: K562, 48 h; control 0.692
Procedure: as §1

[5] = target: T1, PI3Kγ (Homo sapiens, UniProt P48736); experiment: PI3K enzyme inhibition assay (ADP-Glo), PI3Kγ; assay type: biochemical; conditions: mean ± SD of three experiments
T1 construct: purchased BPS Bioscience, San Diego, CA
Procedure: (§3) The inhibition activities of 4d and 7f against PI3K enzyme were detected using PI3K assay kits and ADP-Glo kinase assay as a detection buffer (BPS Bioscience, San Diego, CA). According to the manufacturer’s instructions, PI3K enzyme was diluted with 2.5x Kinase assay buffer to obtain 4 ng/µl. The assay was performed in 96 well plates as follows: 5 µl of PIP2 substrate was added to each well followed by 5 ul from each inhibitor except for the positive control and blanks where the inhibitor buffers were added instead. Of 5 ul of 12.5 µM ATP was added. The reactions were initiated by adding 10 µl of diluted PI3K enzyme to the positive control and inhibitors wells. Plate was carefully shaked and was incubated at 30 °C for 40 min. After the 40 min incubation, 25 µl of ADP-Glo reagent were added to each well. The plate was covered with aluminium foil and incubated at room temperature for another 45 min. Of 50 µl of Kinase Detection reagent was added to each well. Plate was covered with aluminium foil and incubated at room temperature for extra 30 min. Luminescence was measured using microplate reader. Four concentrations from the two tested compounds ranged from (0.1 to 100 µM) were prepared and the experiment was repeated in triplicate. […] IC50 values were calculated using dose-response curves and linear regression equation.

[6] = system: PI3K; experiment: Western blot, PI3K expression in K562; assay type: cell-based; conditions: K562, 48 h; control 0.881
Procedure: as §1

[7] = system: Cyclin D1; experiment: Western blot, Cyclin D1 expression in K562; assay type: cell-based; conditions: K562, 48 h; control 0.849
Procedure: as §1

[8] = system: normal fibroblast cell line (WI-38); experiment: Cytotoxicity on normal fibroblast cell line; assay type: cell-based; conditions: WI-38 versus K562
[9] = Cytotoxicity on normal fibroblast cell line; assay type: cell-based; conditions: human, WI-38 normal fibroblast cells; non-tumorigenic cell line
[10] = In-vivo acute toxicity study; conditions: rat, 2 g/kg, female rats, po, observed 14 d, read-out: median lethal dose (LD50)
Procedure: Five female rats (180–200 g) were used in this test. The animals were fasted for 24 h prior to administration of the test compound. The compound was administered in a dose of 2 g/kg body weight, po . Animals are observed individually and the mortalities were recorded at least once during the first 30 min after dosing, periodically during the first 24 h and daily afterwards, for a total of 14 d[40]. All animals received humane care and experimental procedures were carried out in strict accordance with the health and care guidelines for experimental animals. All experimental operations performed on rats were approved by the Animal Experiment Ethics Committee of Heliopolis University (Approval number HU.REC.A0.23-2021).
The toxicological profile of the most promising synthesised anticancer compound 7f was evaluated in female rats using the reported method in OECD guidelines. […]

[11] = system: K562 cells; experiment: Annexin-V-FITC apoptosis assay; assay type: cell-based; conditions: K562, 48 h
Procedure: Apoptosis induction was assayed by staining K562 cells with Annexin-V (fluorescein isothiocyanate) and the counterstaining PI using the Annexin-V-FITC/PI apoptosis detection kit (BD Biosciences, San Diego, CA) according to the manufacturer’s instructions. Cells were exposed to the tested compound for 48 h. After that, the cells were collected by trypsinisation and 0.5 × 10^6 cells and washed twice with phosphate-buffered saline (PBS) followed by staining with 5 µl Annexin-V-FITC and 5 µl PI in 1 × binding buffer for 15 min at room temperature in the dark. FACS Calibre flow cytometer (BD Biosciences, San Diego, CA)[26]^,[36]^,[37] was used for analyses.
Data of the current research highlighted that treating Leukaemia K562 cells for 48 h with the compound 7f caused an increase in the percentage of Annexin-V positive apoptotic cells both in the early and late stage which represents a total significant 17-fold increase compared to the control.

[12] = system: AKT; experiment: Western blot, AKT expression in K562; assay type: cell-based; conditions: K562, 48 h; control 0.744
Procedure: as §1

[13] = system: K562 cells; experiment: Cell cycle analysis (PI flow cytometry); assay type: cell-based
Procedure: Cell cycle analysis was determined by propidium iodide (PI) flow cytometry kit/BD. K562 cells were treated by compound 7f at its IC50 concentration. Then cells were washed in PBS, fixed in cold 70% ethanol for 30 min, washed twice in PBS, and centrifuged to remove supernatant, after that, cells were treated with 0.1 mg/ml ribonuclease, stained with 0.05 mg/ml PI. The results were analysed by flow cytometry using FACS calibre and cell cycle distribution were calculated and accomplished as reported[26]^,[34]^,[35].
As reported in the literature, inhibition of PI3K/AKT pathway affects the cell survival and proliferation[8]^,[9]. Thus, to investigate the effect of compound 7f in PI3K/Akt dual inhibition on cell cycle progression, cell cycle analysis was performed by flowcytometric analysis as reported[34]^,[35] on K562 cells treated with compound 7f. The outcomes presented in Table 4 indicated the interference with the cell cycle distribution, following 7f treatment, where there was a marked increase in the cells in pre-G1 phase by nearly 17-fold as compared to the control.

[14] = system: p-PI3K; experiment: Western blot, p-PI3K expression in K562; assay type: cell-based; conditions: K562, 48 h; control 0.639
Procedure: as §1

[15] = target: T2, PI3Kδ (Homo sapiens, UniProt O00329); experiment: PI3K enzyme inhibition assay (ADP-Glo), PI3Kδ; assay type: biochemical; conditions: mean ± SD of three experiments
T2 construct: purchased BPS Bioscience, San Diego, CA
Procedure: as §3

[16] = target: AKT-1 (Homo sapiens, UniProt P31749); experiment: AKT enzyme inhibition assay (ELISA, cell lysates); assay type: biochemical; conditions: mean ± SD of three experiments
Procedure: In brief, cell lysates were collected after treatment with the tested compounds using lysis buffer and centrifuged at 13,000 rpm for 15 min to obtain the cytosolic fraction. Samples were soaked with the kinase diluted buffer and the reaction was initiated by adding 10 µl of diluted ATP to each well, except blanks. Plate was incubated at 30 °C for up to 90 min covered with an adhesive plate sealer with gentle, shaking every 20 min. The reaction was stopped by emptying contents of each well. Of 40 µl of the phospho-specific substrate antibody was added except blank then incubated incubate at room temperature for 60 min, with shaking every 20 min. The liquid was aspirated and the wells washed three times with 1X washing buffer. After the last wash, liquid was aspirated and 40 µl of the diluted Anti-Rabbit IgG: HRP conjugate was added except blank, and incubated at room temperature for 30 min with shaking every 10 min. Plate was washed as described before. Of 60 µl of the TMB Substrate was added to each well and incubated at room temperature for 30–60 min. The reaction was stopped by adding 20 µl of the stop solution to each well. Absorbance was measured at 450 nm. Four concentrations from the tested compounds were prepared ranged from 0.1 to 100 µM and the assay was done in triplicates. […] LY2780301 compound was used as the positive control.

[17] = set-up: method as in PMID 32659486; conditions: printed in Figure 4, target not given; cited from earlier work
[18] = K562, treated at IC50 concentration

T2 sequence (O00329 whole entry): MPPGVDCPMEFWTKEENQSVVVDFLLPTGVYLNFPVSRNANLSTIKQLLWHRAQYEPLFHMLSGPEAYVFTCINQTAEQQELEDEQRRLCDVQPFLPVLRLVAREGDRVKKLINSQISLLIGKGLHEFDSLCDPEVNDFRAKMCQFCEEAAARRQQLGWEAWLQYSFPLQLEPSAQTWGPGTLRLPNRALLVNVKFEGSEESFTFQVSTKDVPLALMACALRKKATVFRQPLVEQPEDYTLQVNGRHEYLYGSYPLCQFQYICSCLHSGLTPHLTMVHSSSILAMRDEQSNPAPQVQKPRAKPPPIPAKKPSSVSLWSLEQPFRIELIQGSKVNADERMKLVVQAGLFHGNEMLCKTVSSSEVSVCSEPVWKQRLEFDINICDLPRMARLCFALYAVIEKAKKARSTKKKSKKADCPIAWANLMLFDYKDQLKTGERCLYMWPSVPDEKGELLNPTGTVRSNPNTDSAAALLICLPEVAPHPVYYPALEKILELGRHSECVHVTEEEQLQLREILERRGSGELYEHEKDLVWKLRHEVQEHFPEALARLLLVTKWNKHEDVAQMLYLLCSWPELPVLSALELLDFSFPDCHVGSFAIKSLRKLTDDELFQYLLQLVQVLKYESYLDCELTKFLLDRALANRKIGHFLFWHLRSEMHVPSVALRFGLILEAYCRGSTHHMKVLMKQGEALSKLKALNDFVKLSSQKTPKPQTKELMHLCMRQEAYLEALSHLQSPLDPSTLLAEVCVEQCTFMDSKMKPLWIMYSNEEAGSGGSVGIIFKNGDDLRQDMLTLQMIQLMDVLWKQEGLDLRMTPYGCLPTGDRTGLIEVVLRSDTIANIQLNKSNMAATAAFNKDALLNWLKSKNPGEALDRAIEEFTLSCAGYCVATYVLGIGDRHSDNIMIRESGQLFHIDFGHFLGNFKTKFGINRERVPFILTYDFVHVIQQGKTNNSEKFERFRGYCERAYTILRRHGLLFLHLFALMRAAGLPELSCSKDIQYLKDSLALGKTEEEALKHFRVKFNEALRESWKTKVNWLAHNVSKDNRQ
T2 sequence (P27986 whole entry partner): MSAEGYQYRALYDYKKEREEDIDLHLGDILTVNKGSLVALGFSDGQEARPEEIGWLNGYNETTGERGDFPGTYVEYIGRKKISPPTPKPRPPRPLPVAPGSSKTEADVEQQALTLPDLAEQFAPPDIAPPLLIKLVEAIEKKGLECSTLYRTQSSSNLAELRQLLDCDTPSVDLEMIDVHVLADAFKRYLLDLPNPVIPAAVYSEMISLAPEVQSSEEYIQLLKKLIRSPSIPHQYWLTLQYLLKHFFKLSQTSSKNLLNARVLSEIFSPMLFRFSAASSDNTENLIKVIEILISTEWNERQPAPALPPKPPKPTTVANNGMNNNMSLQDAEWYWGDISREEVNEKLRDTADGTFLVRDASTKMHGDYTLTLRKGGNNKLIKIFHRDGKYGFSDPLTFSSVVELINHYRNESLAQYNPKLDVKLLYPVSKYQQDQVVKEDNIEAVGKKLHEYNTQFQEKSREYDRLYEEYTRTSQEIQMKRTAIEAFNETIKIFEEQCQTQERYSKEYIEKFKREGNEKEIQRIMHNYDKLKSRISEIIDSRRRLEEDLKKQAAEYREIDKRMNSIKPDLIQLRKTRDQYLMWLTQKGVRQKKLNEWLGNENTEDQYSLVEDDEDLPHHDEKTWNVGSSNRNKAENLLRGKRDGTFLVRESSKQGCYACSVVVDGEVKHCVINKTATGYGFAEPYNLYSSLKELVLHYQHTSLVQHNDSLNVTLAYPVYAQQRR
T1 sequence (P48736 whole entry): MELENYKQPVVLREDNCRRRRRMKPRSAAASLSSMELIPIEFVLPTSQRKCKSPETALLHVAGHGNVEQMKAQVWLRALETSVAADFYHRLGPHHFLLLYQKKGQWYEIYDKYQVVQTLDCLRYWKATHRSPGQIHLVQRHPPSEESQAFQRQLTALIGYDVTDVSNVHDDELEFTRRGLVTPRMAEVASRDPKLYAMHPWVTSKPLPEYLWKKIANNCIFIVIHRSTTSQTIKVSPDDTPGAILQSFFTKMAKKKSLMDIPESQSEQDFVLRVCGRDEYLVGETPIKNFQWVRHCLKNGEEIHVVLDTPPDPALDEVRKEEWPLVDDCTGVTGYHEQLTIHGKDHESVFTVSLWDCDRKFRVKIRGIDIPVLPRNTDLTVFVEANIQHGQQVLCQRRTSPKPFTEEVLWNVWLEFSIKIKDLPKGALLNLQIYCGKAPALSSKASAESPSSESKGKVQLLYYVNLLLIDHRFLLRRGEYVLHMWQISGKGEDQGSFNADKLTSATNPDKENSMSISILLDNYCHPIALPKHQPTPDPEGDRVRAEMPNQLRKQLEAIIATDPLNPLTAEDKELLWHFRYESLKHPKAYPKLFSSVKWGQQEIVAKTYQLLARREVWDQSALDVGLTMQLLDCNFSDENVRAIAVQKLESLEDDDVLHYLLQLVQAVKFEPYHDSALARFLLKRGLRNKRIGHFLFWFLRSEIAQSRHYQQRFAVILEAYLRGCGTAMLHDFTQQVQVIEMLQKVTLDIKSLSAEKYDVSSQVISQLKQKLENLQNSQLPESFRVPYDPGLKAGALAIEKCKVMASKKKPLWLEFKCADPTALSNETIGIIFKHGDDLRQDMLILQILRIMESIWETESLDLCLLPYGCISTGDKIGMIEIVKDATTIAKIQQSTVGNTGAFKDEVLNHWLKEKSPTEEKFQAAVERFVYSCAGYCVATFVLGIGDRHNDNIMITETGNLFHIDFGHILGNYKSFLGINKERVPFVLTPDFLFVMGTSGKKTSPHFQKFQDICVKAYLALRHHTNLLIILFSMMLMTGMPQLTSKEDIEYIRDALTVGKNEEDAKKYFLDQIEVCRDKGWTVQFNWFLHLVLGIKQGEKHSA
AKT-1, sequence (P31749 whole entry): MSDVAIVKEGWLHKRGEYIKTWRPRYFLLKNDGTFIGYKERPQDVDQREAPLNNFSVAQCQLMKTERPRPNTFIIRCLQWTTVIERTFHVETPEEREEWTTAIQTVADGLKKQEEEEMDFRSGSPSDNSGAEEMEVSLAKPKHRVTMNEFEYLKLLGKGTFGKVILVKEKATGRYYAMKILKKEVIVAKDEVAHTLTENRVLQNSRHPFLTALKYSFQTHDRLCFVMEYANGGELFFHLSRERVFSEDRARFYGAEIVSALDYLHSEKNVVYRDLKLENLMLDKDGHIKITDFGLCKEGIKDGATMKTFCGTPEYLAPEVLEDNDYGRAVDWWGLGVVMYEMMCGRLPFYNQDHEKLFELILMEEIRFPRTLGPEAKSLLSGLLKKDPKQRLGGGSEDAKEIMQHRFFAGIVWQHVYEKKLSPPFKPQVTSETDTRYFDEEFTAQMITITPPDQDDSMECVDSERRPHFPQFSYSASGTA

SMILES: COc1ccc(-c2nc(SC)nc(Nc3ccc(Br)cc3)c2C#N)cc1 [5d, 4-((4-Bromophenyl)amino)-6-(4-methoxyphenyl)-2-(methylthio)pyrimidine-5-carbonitrile]
- IC50 [1]: 5.52 ± 0.26 µM
- IC50 [2]: 15.7 ± 0.85 µM

SMILES: COc1ccc(-c2nc(SC)nc(NN=Cc3ccc(Br)cc3)c2C#N)cc1 [7d, 4-(2-(4-Bromobenzylidene)hydrazineyl)-6-(4-methoxyphenyl)-2-(methylthio)pyrimidine-5-carbonitrile]
- IC50 [1]: 44.3 ± 2.1 µM
- melting point: 246 to 248 °C
- IC50 [2]: 56 ± 3.05 µM

SMILES: COc1ccc(-c2nc(SC)nc(NN=Cc3ccc(C)cc3)c2C#N)cc1 [7a, 4–(4-Methoxyphenyl)-6-(2-(4-methylbenzylidene)hydrazineyl)-2-(methylthio)pyrimidine-5-carbonitrile]
- IC50 [1]: 22.8 ± 1.08 µM
- melting point: 246 to 248 °C
- IC50 [2]: 30.5 ± 1.66 µM

SMILES: COc1ccc(Nc2nc(SC)nc(-c3ccc(OC)cc3)c2C#N)cc1 [5b, 4-(4-Methoxyphenyl)-6-((4-methoxyphenyl)amino)-2-(methylthio)pyrimidine-5-carbonitrile]
- IC50 [1]: 46.3 ± 2.2 µM
- melting point: 238 to 240 °C
- IC50 [2]: 125 ± 6.82 µM

SMILES: COc1ccc(-c2nc(SC)nc(N3CCNCC3)c2C#N)cc1 [4a, 4-(4-Methoxyphenyl)-2-(methylthio)-6-(piperazin-1-yl)pyrimidine-5-carbonitrile]
- IC50 [1]: 7.97 ± 0.38 µM
- IC50 [2]: 2.54 ± 0.14 µM

SMILES: COc1ccc(-c2nc(SC)nc(Nc3ccc(Cl)cc3)c2C#N)cc1 [5c]
- IC50 [1]: 5.82 ± 0.28 µM
- IC50 [2]: 46.9 ± 2.55 µM

SMILES: COc1ccc(-c2nc(SC)nc(NN=Cc3ccc([N+](=O)[O-])cc3)c2C#N)cc1 [7e, 4–(4-Methoxyphenyl)-2-(methylthio)-6-(2-(4-nitrobenzylidene)hydrazineyl)pyrimidine-5-carbonitrile]
- IC50 [1]: 5.36 ± 0.25 µM
- melting point: 248 to 250 °C
- IC50 [2]: 7.11 ± 0.39 µM

SMILES: COc1ccc(-c2nc(SC)nc(NN)c2C#N)cc1 [compound 6, 4-Hydrazineyl-6-(4-methoxyphenyl)-2-(methylthio)pyrimidine-5-carbonitrile]
- IC50 [1]: 6.67 ± 0.32 µM
- melting point: 270 to 272 °C
- IC50 [2]: 3.49 ± 0.19 µM

SMILES: COc1ccc(-c2nc(SC)nc(N3CCN(C)CC3)c2C#N)cc1 [4b, 4-(4-Methoxyphenyl)-6-(4-methylpiperazin-1-yl)-2-(methylthio)pyrimidine-5-carbonitrile]
- IC50 [1]: 93.6 ± 4.44 µM
- IC50 [2]: 56.3 ± 3.06 µM

SMILES: COc1ccc(-c2nc(SC)nc(N3CCN(c4ccccc4OC)CC3)c2C#N)cc1 [4e, 4-(4-Methoxyphenyl)-6-(4-(2-methoxyphenyl)piperazin-1-yl)-2-(methylthio)pyrimidine-5-carbonitrile]
- IC50 [1]: 34.8 ± 1.65 µM
- melting point: 170 to 172 °C
- IC50 [2]: 15.6 ± 0.85 µM

SMILES: COc1ccc(-c2nc(SC)nc(N3CCN(c4ccccc4)CC3)c2C#N)cc1 [4c, 4-(4-Methoxyphenyl)-2-(methylthio)-6-(4-phenylpiperazin-1-yl)pyrimidine-5-carbonitrile]
- IC50 [1]: 3.86 ± 0.18 µM
- IC50 [2]: 6.64 ± 0.36 µM

SMILES: COc1ccc(-c2nc(SC)nc(NN=Cc3cc(OC)c(OC)c(OC)c3)c2C#N)cc1 [7f, 4-(4-Methoxyphenyl)-2-(methylthio)-6-(2-(3,4,5-trimethoxybenzylidene)hydrazineyl)pyrimidine-5-carbonitrile]
- Western blot [OD] NFkb [3]: 0.402 OD
- Western blot [OD] p-AKT [4]: 0.316 OD
- IC50 [5]: 6.99 ± 0.36 µM
- Western blot [OD] PI3K [6]: 0.219 OD
- Western blot [OD] Cyclin D1 [7]: 0.383 OD
- SI (selectivity index) [8]: 13.29
- IC50 [9]: 34.8 ± 2.11 µM
- LD50 at 14 d [10]: > 2000 mg/kg
- Apoptosis% Early [11]: 3.19%
- Apoptosis% Late [11]: 19.04%
- Apoptosis% Total [11]: 31.72%
- Necrosis [11]: 9.49%
- Total increase of Annexin-V positive apoptotic cells compared to the control [11]: 17 fold
- Western blot [OD] AKT [12]: 0.402 OD
- Cell cycle analysis, Comment ([13]; K562): Cell growth arrest at S phase
- Increase in S-phase compared to the control ([13]; K562): ~1.3 fold
- Increase in cells in pre-G1 phase compared to the control ([13]; K562): ~17 fold
- DNA content % %G0-G1 [13, 18]: 44.97%
- DNA content % %Pre-G1 [13, 18]: 31.72%
- IC50 [1]: 2.62 ± 0.12 µM
- Western blot [OD] p-PI3K [14]: 0.281 OD
- IC50 [15]: 4.01 ± 0.55 µM
- IC50 [2]: 3.22 ± 0.18 µM

SMILES: COc1ccc(C=NNc2nc(SC)nc(-c3ccc(OC)cc3)c2C#N)cc1 [7b, 4-(2-(4-Methoxybenzylidene)hydrazineyl)-6-(4-methoxyphenyl)-2-(methylthio)pyrimidine-5-carbonitrile]
- IC50 [1]: 16.8 ± 0.8 µM
- melting point: 244 to 246 °C
- IC50 [2]: 22.9 ± 1.24 µM

SMILES: COc1ccc(-c2nc(SC)nc(Nc3ccc(C)cc3)c2C#N)cc1 [5a, 4-(4-Methoxyphenyl)-2-(methylthio)-6-(p-tolylamino)pyrimidine-5-carbonitrile]
- IC50 [1]: 26.3 ± 1.25 µM
- melting point: 270 to 272 °C
- IC50 [2]: 21.3 ± 1.16 µM

SMILES: CN(C)CCn1cc(-c2ccc(F)c(C(F)(F)F)c2)nc1C1CCN(c2ncnc3c2CC(=O)N3)CC1 [LY2780301]
- IC50 [16]: 4.62 ± 0.24 µM

SMILES: COc1ccc(-c2nc(N/N=C/c3c[nH]c4ccccc34)nc(N3CCOCC3)c2C#N)cc1 [VIII]
- IC50 [17]: 10.9 µM

SMILES: COc1ccc(-c2nc(SC)nc(NN=Cc3ccc(Cl)cc3)c2C#N)cc1 [7c, 4-(2-(4-Chlorobenzylidene)hydrazineyl)-6-(4-methoxyphenyl)-2-(methylthio)pyrimidine-5-carbonitrile]
- IC50 [1]: 3.76 ± 0.18 µM
- melting point: 266 to 268 °C
- IC50 [2]: 7.42 ± 0.4 µM

SMILES: O=c1cc(N2CCOCC2)oc2c(-c3ccccc3)cccc12 [LY294002, reference compound]
- IC50 [15]: 13.4 ± 0.67 µM

SMILES: COc1ccc(-c2nc(SC)nc(N3CCN(c4ccccc4F)CC3)c2C#N)cc1 [4d, 4-(4-(2-Fluorophenyl)piperazin-1-yl)-6-(4-methoxyphenyl)-2-(methylthio)pyrimidine-5-carbonitrile]
- IC50 [5]: 35.1 ± 1.82 µM
- SI (selectivity index) [8]: 109.72
- IC50 [9]: 116 ± 7.03 µM
- IC50 [1]: 1.06 ± 0.05 µM
- melting point: 142 to 144 °C
- IC50 [15]: 23.9 ± 1.2 µM
- IC50 [2]: 0.8 ± 0.25 µM
